Test results as given in PubChem BioAssay (NCI).
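Protocol summary: plate cells (96-well), add compound at 5 concentrations, incubate 48 h, interpolate endpoints linearly. Definition used: TGI = concentration required for complete inhibition of growth.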 Where a SMILES comes first, the peptide text is derived from it. The star is where a group is joined. Boc = CC(C)(C)OC(=O)*

What was measured:
Assay in all cases: growth of human tumour cells (NCI), 48 h
[1] = system: OVCAR-5 ovarian
[2] = system: MOLT-4 leukemia
[3] = system: NCI/ADR-RES ovarian
[4] = system: HL-60(TB) leukemia

Compound | TGI [1] [µM] | TGI [2] [µM] | TGI [3] [µM] | TGI [4] [µM]
CC1CC/C(=C\c2ccc(Cl)cc2)C(=O)/C1=C\c1ccc(Cl)cc1 (stereo not given) | 44.6 |  |  | 
COc1cc(/C=C2\N=C(c3ccccc3)N(c3ccc(S(=O)(=O)Nc4nccs4)cc3)C2=O)ccc1O | > 100 | > 100 | > 100 | > 100
CN(O)C(=O)c1ccc(OCc2cccc(Cl)c2)cc1 | > 100 | > 100 | > 89.4 | 22.2
CN(C)c1ccc(/C=C(\NC(=O)c2ccccc2)c2nc3ccccc3c(=O)o2)cc1 | > 100 | > 100 | > 100 | > 100
COc1ccccc1-c1n[nH]c(-c2ccccc2O)n1 | > 100 | > 100 | > 100 | > 100
CC(C)(C)c1cc(C(C)(C)C)c(P=C(Cl)Cl)c(C(C)(C)C)c1 (stereo not given) | > 100 | > 100 | > 100 | > 100
CCOC(=O)C12C3CCC1C2C(=O)C3 (stereo not given) | > 100 | > 100 | > 100 | 
O=[N+]([O-])/C(C(Cl)=C(Cl)Cl)=C(\Nc1cccc2cccnc12)Sc1ccccc1 | > 100 | 37.4 | 63.5 | 
O=C1CCCSCCCC(=O)CCCSCCC1 | > 100 | > 100 | > 100 | > 100
Cc1ccc(-n2nnc3c(NNc4ccccc4)n[nH]c(=O)c32)cc1 | > 100 | > 100 | > 100 | > 100
Nc1ccc2c(c1)N(C(=O)CCCC(=O)N1CC(CCl)c3ccc(N)cc31)CC2CCl (stereo not given) | > 41.3 | > 50 | 42.7 | 0.907
Nc1c(O)c2c(c(O)c1Cl)C(=O)C=CC2=O | 11.4 | > 87.6 | > 32.6 | 6.13
Cc1nc(C)c(N2CCN(C(=O)NC(CCC(=O)O)C(=O)O)CC2)c(=O)[nH]1 (stereo not given) | > 100 | > 100 | > 100 | > 100
COc1ccc(/C=C/C(=O)c2cccc(C(=O)/C=C/c3ccc(OC)c(OC)c3)n2)cc1OC | > 91.2 |  | > 86.8 | 92.2
Cc1cccc(/C=N/NC(=S)NC2CCCCC2)n1 | > 100 | 13.9 | > 67.1 | > 44.5
COC(=O)C1=C(O)C(C(=O)OC)[C@]2(O)[C@H](C(=O)OC)[C@H]1C[C@@H](c1ccc(Cl)cc1Cl)[C@H]2C(=O)OC (stereo not given in full) | 40.7 | 8.98 | 38.2 | 7.9
COC(=O)C(Cc1c[nH]c2ccccc12)NC(=O)C(Cc1c[nH]c2ccccc12)NC(=O)C(Cc1c[nH]c2ccccc12)NC(=O)C(Cc1c[nH]c2ccccc12)NC(=O)C(Cc1c[nH]c2ccccc12)NC(=O)OC(C)(C)C (stereo not given) (Boc-WWWWW-OMe; configuration not given here) | > 100 | > 100 |  | 81.6
COC(=O)C1=C(C(=O)OC)C2(c3ccccc3)c3ccccc3C(=O)C1N2C1CCCCC1 (stereo not given) | > 100 | > 81.4 | > 100 | > 100

Compound | TGI [1] [µM] | TGI [2] [µM] | TGI [3] [µM] | TGI [4] [µM]
N#CCN(Cc1ccccc1)[C@H]1CCC[C@]1(O)/C=C/c1ccc2c(c1)OCO2 | > 100 | 48.1 | 42 | 34.9
CC1(C)C2CC1C(/C=N\OCC(=O)O)=CC2=O (stereo not given) | > 100 | > 100 | > 100 | > 100
Nc1nc([O-])c([I+]c2ccccc2)c(=O)[nH]1 | > 100 | > 100 | > 100 | > 100
CN(C)Cc1cc(N=Nc2c(Cl)cccc2Cl)ccc1O |  | > 100 | > 100 | > 100
CCCCCCCCCCCCOCCCCCCCCC/C=C/c1ccc2c(c1)OCCOCCOCCOCCO2 | > 100 | > 100 | 34.8 | > 100
COc1ccc(/C=C/C(=N/NC(=O)N/N=C(/C=C/c2ccc(OC)cc2)C(C)C)C(C)C)cc1 | > 100 | > 100 | > 100 | > 100
CC(C)C(=O)CC(Sc1ccc(N)cc1)c1ccccc1 (stereo not given) | > 100 | > 100 | 99.6 | 49.2
CSC1=C(C)S/C(=C\c2ccc(/C=C3\SC(C)=C(SC)S3)cc2)S1 | > 100 | > 100 | > 100 | > 100
Cc1cc(Cl)ccc1NC(=O)/C(Cc1nc2ccc(C(=O)c3ccccc3)cc2[nH]c1=O)=N/NC(=O)c1ccncc1 | > 100 | > 100 | > 100 | > 100
CN(C(=O)C12C3C4C1C1C2C3C41C(=O)O)C(C)(C)C (stereo not given) | > 100 | > 100 | > 100 | > 100
COc1ccc(OC)c2sc(N3C(=O)/C(=C/c4ccc(N(C)C)cc4)N=C3c3ccccc3)nc12 | > 100 | 65.7 | > 100 | 64.3
Cc1cccc2c1CC(C1OC(=O)c3c(C)cccc31)C2=O (stereo not given) | > 100 | > 100 | > 100 | > 100
CCOC(=O)/C(=C\NC[C@@H](C)O)c1nc2ccccc2[nH]1 | > 100 |  | > 100 | 90.4
COC(=O)CC(SCCO)SCCO | > 100 | > 100 | > 100 | > 100
COc1ccc2c(c1OC)C(Br)CCC(Br)(Br)C2=O (stereo not given) | 31.8 | 8.32 | 40.2 | 23.7
O=C(c1c(F)c(F)c(F)c(F)c1F)n1c(=O)[nH]c2ccccc21 | 29.7 | 18.7 | 58.1 | 5.05
[N-]=[N+]=NC1(c2ccccc2)C(=O)c2cccc3c4ccccc4n(c23)C1=O (stereo not given) | > 100 | > 100 | > 100 | 
